Source: paper PMC8840619, “Conjugation of Palbociclib with MHI-148 Has an Increased Cytotoxic Effect for Breast Cancer Cells and an Altered Mechanism of Action” (Molecules, 2022)
Read-outs that look alike come from different tables or passages of the source.

What was measured:
HEK293 [1] = assay: [3H]-thymidine incorporation cell proliferation assay; format: cell-based, human; conditions: 3 days of treatment, mean ± SEM
Protocol: (§1) As described previously, 3000 cells per well were seeded in 96-well plates and incubated in the presence of varying concentrations of drugs for three days. Cell proliferation was measured by thymidine uptake assay, cell growth by sulforhodamine B (SRB) colorimetric assay, and cell viability by WST-1 assay, as previously described.
(§2) Briefly, for the proliferation assay, [^3H]-thymidine (0.04 μCi) was added to each well and plates were incubated for 5 h, after which the cells were harvested onto glass–fiber filters using an automated TomTec harvester. Filters were incubated with Betaplate Scint and [^3H]-thymidine incorporation was measured in a Trilux/Betaplate counter. Cell proliferation was determined by the percentage incorporation of [^3H]-thymidine.

MCF-7 [2] = assay: as above; format: cell-based, human; conditions: 3 days of treatment, mean ± SEM
Protocol: as §1, §2

MDA-MB-231 [3] = assay: as above; format: cell-based, human; conditions: for IC50: MDA-MB-231, 3 days of treatment, mean ± SEM
Protocol: as §1, §2

51D1.3 [4] = assay: as above; format: cell-based, Chinese hamster; conditions: 3 days of treatment, mean ± SEM
Protocol: as §1, §2

51D1 [5] = assay: as above; format: cell-based, Chinese hamster; conditions: 3 days of treatment, mean ± SEM
Protocol: as §1, §2

HEK293 [6] = assay: SRB cell growth assay; format: cell-based, human; conditions: 3 days of treatment, mean ± SEM
Protocol: as §1
(§3) The SRB colorimetric assay, which is based on the measurement of cellular protein content, was used to measure cell density. After drug treatment for 3 days, cells were fixed with 10% (wt/vol) trichloroacetic acid and stained for 30 min, and the excess dye was removed by washing repeatedly with 1% (vol/vol) acetic acid. The protein-bound dye was dissolved in Tris base solution (10 mM) for optical density determination at 510 nm using a microplate reader. Optimal cell densities were previously determined to select initial cell densities that ensured that cells were in logarithmic phase for the experiments.

MCF-7 [7] = assay: SRB cell growth assay; format: cell-based, human; conditions: for IC50: 3 days of treatment, mean ± SEM
Protocol: as §1, §3

MDA-MB-231 [8] = assay: SRB cell growth assay; format: cell-based, human; conditions: for IC50: 3 days of treatment, mean ± SEM
Protocol: as §1, §3

51D1.3 [9] = assay: SRB cell growth assay; format: cell-based, Chinese hamster; conditions: 3 days of treatment, mean ± SEM
Protocol: as §1, §3

51D1 [10] = assay: SRB cell growth assay; format: cell-based, Chinese hamster; conditions: 3 days of treatment, mean ± SEM
Protocol: as §1, §3

HEK293 [11] = assay: WST-1 cell viability assay; format: cell-based, human; conditions: for IC50: 3 days of treatment, mean ± SEM; for EC50: Supplementary Table S1
Protocol: as §1
(§4) For viability, […] activity was measured using a water-soluble tetrazolium salt (WST-1) (purchased from Roche, Basel, Switzerland) after drug treatment for 3 days. The stable tetrazolium salt WST-1 is cleaved to a soluble formazan by a complex cellular mechanism that occurs primarily at the cell surface. This bio-reduction is largely dependent on the glycolytic production of NAD(P)H in viable cells. Therefore, the amount of formazan dye formed directly correlates with the number of metabolically active cells in the culture.

MCF-7 [12] = assay: WST-1 cell viability assay; format: cell-based, human; conditions: for IC50: 3 days of treatment, mean ± SEM; for EC50: MCF7, Supplementary Table S1
Protocol: as §1, §4

MDA-MB-231 [13] = assay: WST-1 cell viability assay; format: cell-based, human; conditions: for IC50: 3 days of treatment, mean ± SEM; for EC50: Supplementary Table S1
Protocol: as §1, §4

51D1.3 [14] = assay: WST-1 cell viability assay; format: cell-based, Chinese hamster; conditions: for IC50: 3 days of treatment, mean ± SEM; for EC50: Supplementary Table S1
Protocol: as §1, §4

51D1 [15] = assay: WST-1 cell viability assay; format: cell-based, Chinese hamster; conditions: for IC50: 3 days of treatment, mean ± SEM; for EC50: Supplementary Table S1
Protocol: as §1, §4

[16] = Absorbance spectra in DMSO; format: physicochemical; conditions: 25 °C
Protocol: The absorbance and fluorescence emission spectra of up to 7 three-fold serial dilutions of MHI-148 and MHI-palbociclib in DMSO, ranging from […], were acquired at 25 °C.
• (a) Absorbance spectra of the test compound solutions (200 μL) plated in a 96-well polystyrene flat-bottom transparent microplate were acquired on a quad monochromator-equipped microplate reader Enspire 2300 (Perkin-Elmer; Singapore) from 650 nm to 900 nm in 1 nm increments. • (b) Fluorescence emission spectra of the compound solutions in a 2 mL semi-micro quartz cuvette were measured on a FP-8600 spectrofluorometer (JASCO; Japan) between 790 nm and 850 nm in 1 nm increments at the excitation wavelength of 780 nm. The fluorescence emission was measured at a high sensitivity of the instrument, with an excitation and emission bandwidth of 5 nm, a 50 ms response time, and a scan speed of 1000 nm per minute.

MDA-MB-231 cells [17] = assay: Flow cytometry cell cycle analysis (DNA content, PI); format: cell-based, human; conditions: 500 nM for 24 h, untreated cells 48%
Protocol: As previously described, cells (1 × 10^6 cells) were grown in six-well plates and incubated with drugs for 24 h. Cells were harvested, washed with 1% FBS/phosphate-buffered saline (PBS), resuspended in 200 μL of PBS, fixed in 2 mL of ice-cold 100% ethanol, and stored overnight at −20 °C. The cells were washed and resuspended in 1 mL of 1% FBS/PBS, containing RNase (1 μg/mL) and propidium iodide (PI) (10 μg/mL), for 30 min at room temperature. DNA content was determined using […] by PI staining based on a total of 25,000 acquired events on a BD Biosciences Accuri C6 flow cytometer, and cell cycle distribution was analysed using FlowJo version 10.7.2.

MDA-MB-231 cells [18] = assay: Propidium iodide staining of dying cells; format: cell-based, human; conditions: 1 µM for 24 h
Protocol: Cells (1 × 10^6) were incubated with drugs for 24 h. Cells were next incubated with 50 μg/mL PI in growth media for 15 min at room temperature and protected from light. Cell death was monitored by fluorescence staining of DNA by PI and analysed by fluorescent microscopy using a Floid imaging station (460× magnification).

[19] = Behaviour in aqueous environments (solubility observation); format: physicochemical; conditions: high concentration
MDA-MB-231 [20] = conditions: data from Finn et al.
MCF-7 [21] = test system: MCF-7; set-up: method as in earlier work; conditions: different proliferation assay, ref 21 (Finn et al.), read-out: IC50 proliferation, previously reported; cited from earlier work
MDA-MB-231 [22] = test system: MDA-MB-231; set-up: method as in earlier work; conditions: different proliferation assay, ref 21 (Finn et al.), read-out: IC50 proliferation, previously reported; cited from earlier work
MCF-7 [23] = test system: MCF-7; set-up: method as in PMID 30370249; conditions: read-out: IC50 proliferation; cited from earlier work
MDA-MB-231 [24] = test system: MDA-MB-231; set-up: method as in PMID 30370249; conditions: read-out: IC50 proliferation; cited from earlier work

SMILES: CC1(C)C(/C=C/C2=C(Cl)C(=C/C=C3/N(CCCCCC(=O)O)c4ccccc4C3(C)C)/CCC2)=[N+](CCCCCC(=O)O)c2ccccc21.[Br-] [MHI-148, 1-(5-Carboxypentyl)-2-((E)-2-((E)-3-(2-((E)-1-(5-carboxypentyl)-3,3-dimethylindolin-2-ylidene)ethylidene)-2-chlorocyclohex-1-en-1-yl)vinyl)-3,3-dimethyl-3H-indol-1-ium bromide]
- IC50 (HEK293 [1]; Homo sapiens, 72 h): > 2500 nM
- IC50 (MCF-7 [2]; Homo sapiens, MCF7, 72 h): > 2500 nM
- IC50 (MDA-MB-231 [3]; Homo sapiens, 72 h): > 2500 nM
- IC50 (51D1.3 [4]; Cricetulus griseus, 72 h): > 2500 nM
- IC50 (51D1 [5]; Cricetulus griseus, 72 h): > 2500 nM
- IC50 (HEK293 [6]; Homo sapiens, 72 h): > 2500 nM
- IC50 (MCF-7 [7]; Homo sapiens, MCF7, 72 h): > 2500 nM
- IC50 (MDA-MB-231 [8]; Homo sapiens, 72 h): > 2500 nM
- IC50 (51D1.3 [9]; Cricetulus griseus, 72 h): > 2500 nM
- IC50 (51D1 [10]; Cricetulus griseus, 72 h): > 2500 nM
- IC50 (HEK293 [11]; Homo sapiens, 72 h): > 2500 nM
- EC50 (HEK293 [11]; Homo sapiens): > 2500 nM
- IC50 (MCF-7 [12]; Homo sapiens, MCF7, 72 h): > 2500 nM
- EC50 (MCF-7 [12]; Homo sapiens): > 2500 nM
- IC50 (MDA-MB-231 [13]; Homo sapiens, 72 h): > 2500 nM
- EC50 (MDA-MB-231 [13]; Homo sapiens): > 2500 nM
- IC50 (51D1.3 [14]; Cricetulus griseus, 72 h): > 2500 nM
- EC50 (51D1.3 [14]; Cricetulus griseus): > 2500 nM
- IC50 (51D1 [15]; Cricetulus griseus, 72 h): > 2500 nM
- EC50 (51D1 [15]; Cricetulus griseus): > 2500 nM
- Absorbance λmax [16]: 797 nm

SMILES: CC(=O)c1c(C)c2cnc(Nc3ccc(N4CCN(C(=O)CCCCCN5/C(=C/C=C6\CCCC(/C=C/C7=[N+](CCCCCC(=O)N8CCN(c9ccc(Nc%10ncc%11c(C)c(C(C)=O)c(=O)n(C%12CCCC%12)c%11n%10)nc9)CC8)c8ccccc8C7(C)C)=C6Cl)C(C)(C)c6ccccc65)CC4)cn3)nc2n(C2CCCC2)c1=O.[Br-] [MHI-palbociclib]
- IC50 (HEK293 [1]): 170 ± 4.1 nM
- IC50 (MCF-7 [2]): 215.4 ± 0.8 nM
- IC50 (MDA-MB-231 [3]): 170 ± 9.7 nM
- IC50 (51D1.3 [4]): 217 ± 8.7 nM
- IC50 (51D1 [5]): 205 ± 4.6 nM
- IC50 (HEK293 [6]): 171 ± 7.9 nM
- Growth inhibitory effect compared with combination of unconjugated palbociclib and MHI-148 (MCF-7 [7]; 2.5 μM, 3 days, t-test p = 0.002): significantly greater
- IC50 (MCF-7 [7]): 506 ± 93.6 nM
- Growth inhibitory effect compared with combination of unconjugated palbociclib and MHI-148 (MDA-MB-231 [8]; 2.5 μM, 3 days, t-test p = 0.003): significantly greater
- IC50 (MDA-MB-231 [8]): 683 ± 29.6 nM
- IC50 (51D1.3 [9]): 164 ± 6.8 nM
- IC50 (51D1 [10]): 187 ± 3.9 nM
- IC50 (HEK293 [11]): 418 ± 68.3 nM
- EC50 (HEK293 [11]): 544 nM
- IC50 (MCF-7 [12]): 845 ± 34.3 nM
- IC50 (MDA-MB-231 [13]): 1020 ± 150 nM
- EC50 (MDA-MB-231 [13]): 872 nM
- IC50 (51D1.3 [14]): 401 ± 89 nM
- EC50 (51D1.3 [14]): 471 nM
- IC50 (51D1 [15]): 197 ± 15.7 nM
- EC50 (51D1 [15]): 265 nM
- G1 cell cycle arrest (proportion of cells in G1) (MDA-MB-231 cells [17]): 55%
- PI staining of dying cells (cytotoxic effect) (MDA-MB-231 cells [18]): increased PI staining and reduced cell number
- Absorbance λmax [16]: 800 nm
- Behaviour in aqueous environments [19]: rapidly precipitates in aqueous environments

SMILES: CC(=O)c1c(C)c2cnc(Nc3ccc(N4CCNCC4)cn3)nc2n(C2CCCC2)c1=O [Palbociclib]
- IC50 (MCF-7 [2]; Homo sapiens, MCF7, 72 h): 29.1 ± 8.6 nM
- IC50 (MDA-MB-231 [3]; Homo sapiens, 72 h): 72.2 ± 2.8 nM
- Fold difference of the IC50 of the two cell lines (MDA-MB-231 vs MCF-7) (MDA-MB-231 [3]; thymidine incorporation, own data): 2.5 fold
- IC50 (HEK293 [6]; Homo sapiens, 72 h): > 2500 nM
- IC50 (MCF-7 [7]; Homo sapiens, MCF7, 72 h): > 2500 nM
- IC50 (MDA-MB-231 [8]; Homo sapiens, 72 h): > 2500 nM
- IC50 (51D1.3 [9]; Cricetulus griseus, 72 h): > 2500 nM
- IC50 (51D1 [10]; Cricetulus griseus, 72 h): > 2500 nM
- IC50 (HEK293 [11]; Homo sapiens, 72 h): > 2500 nM
- EC50 (HEK293 [11]; Homo sapiens): > 2500 nM
- IC50 (MCF-7 [12]; Homo sapiens, MCF7, 72 h): > 2500 nM
- EC50 (MCF-7 [12]; Homo sapiens): > 2500 nM
- IC50 (MDA-MB-231 [13]; Homo sapiens, 72 h): > 2500 nM
- EC50 (MDA-MB-231 [13]; Homo sapiens): > 2500 nM
- IC50 (51D1.3 [14]; Cricetulus griseus, 72 h): > 2500 nM
- EC50 (51D1.3 [14]; Cricetulus griseus): > 2500 nM
- IC50 (51D1 [15]; Cricetulus griseus, 72 h): > 2500 nM
- EC50 (51D1 [15]; Cricetulus griseus): > 2500 nM
- G1 cell cycle arrest (proportion of cells in G1) (MDA-MB-231 cells [17]): 87%
- PI staining of dying cells (cytotoxic effect) (MDA-MB-231 cells [18]): minimal PI staining
- Fold difference of the IC50 of the two cell lines (MDA-MB-231 vs MCF-7) (MDA-MB-231 [20]): 2.9 fold
- IC50 (MCF-7 [21]): 148 ± 25.7 nM
- IC50 (MDA-MB-231 [22]): 432 ± 16.1 nM

SMILES: CC(=O)O[C@H]1C(=O)[C@@]2(C)[C@H]([C@H](OC(=O)c3ccccc3)[C@]3(O)C[C@H](OC(=O)[C@H](O)[C@@H](NC(=O)c4ccccc4)c4ccccc4)C(C)=C1C3(C)C)[C@]1(OC(C)=O)CO[C@@H]1C[C@@H]2O [paclitaxel]
- IC50 (MCF-7 [23]): 9.05 ± 0.04 nM
- IC50 (MDA-MB-231 [24]): 5.8 ± 1.13 nM
